Laboratory results published in patent EP0252380B1, “Antibiotic LL-E19020 alpha and beta” (AMERICAN CYANAMID COMPANY, priority 1986, dated 1988).
In brackets after ≈: the same amount, converted by molar mass. Marks after values point to notes of the source that are not given here.

Legend:
Staphylococcus aureus [1] = assay: In vitro antibacterial activity, standard agar dilution method (Table II); assay type: cell-based
Streptococcus pyogenes = assay: Minimum inhibitory concentration by agar dilution (Table VI); assay type: cell-based; conditions: 2 strains tested
[2] = system: Pasteurella haemolytica 30660; assay: Pasteurella disk test (primary in vitro disk diffusion test); assay type: cell-based; conditions: disks soaked in 2.5 mg/ml solution; strain 30660
[3] = system: Trichostrongylus colubriformis; assay: Trichostrongylus colubriformis/gerbil anthelmintic evaluation; assay type: in vivo, Gerbils
Description: Gerbils are infected with 400 infective larvae of the sheep parasite, T. colubriformis on a day 0. On day 7 gerbils are divided into test and untreated control groups of 2-3 animals. Drug is administered in the feed and are fed from day 7-11. Drugs may also be given by gavage (single oral dose) or injected subcutaneously. Single doses are usually administered on day 7. Gerbils are killed on day 11 and small intestines removed. The number of T. colubriformis remaining in the intestines of treated animals are counted and compared to the number remaining in the untreated controls.

[4] = Weight gain and feed efficiency of broiler chicks (Example 6, Table IX); assay type: in vivo, Peterson X Arbor Acres chicks; conditions: for Wg Gains And Feed Efficiency % Improvement Over Controls FEED/GAIN: control 1.41
[5] = system: Streptococcus pyogenes C203; assay: In vivo antibacterial activity in infected mice (Table III); conditions: S. pyogenes C203, 30 minutes before infection
[6] = system: Bordetella bronchiseptica; assay: Minimum inhibitory concentration by agar dilution (Table VI); assay type: cell-based; conditions: 4 strains tested
[7] = system: Streptococcus sp. (β-hemolytic); assay: In vitro antibacterial activity, standard agar dilution method (Table II); assay type: cell-based
Enterococcus = assay: as above; assay type: cell-based
Treponema hyodysenteriae = assay: Minimum inhibitory concentration by microdilution (Table VII); assay type: cell-based
Staphylococcus aureus [8] = assay: Minimum inhibitory concentration by agar dilution (Table VI); assay type: cell-based; conditions: 7 strains tested
[9] = Growth of chickens and efficiency of feed utilization (Example 5, Table VIII); assay type: in vivo, Peterson X Arbor Acres chicks; conditions: for Feed/Gain 0-1 Wk: control 1.21; for Feed/Gain 0-2 Wk: control 1.33; for Feed/Gain 0-3 Wk: control 1.43
Description: In this test one day old Peterson X Arbor Acres chicks are sorted into equal weight groups of 5 males and 5 females per cage. Cages are randomized to treatment groups with six replicates per treatment. Each compound is tested at 50 and 100 ppm in the diet and evaluated against chicks receiving a non-medicated diet.
The chicks are weighed at the start of the test and at 1 week intervals thereafter to the conclusion of said test. The chicks are given free access to feed and water during the entire test period. The feed is weighed when provided to the chicks and excess feed collected and weighed when the cages are cleaned.
The poultry diet employed in the test is as follows: Vitamin-amino acid premix 0.5% Trace minerals 0.1% Sodium chloride 0.3% Dicalcium phosphate 1.2% Ground limestone 0.5% Stabilized fat 4.0% Dehydrated alfalfa, 17% protein 2.0% Corn gluten meal, 41% protein 5.0% Menhaden fish meal, 60% protein 5.0% Soybean oil meal, 44% protein 30.0% Ground yellow corn, fine to 100.0%
The vitamin-amino acid premix in the above feed composition is prepared from the following formulation. The expressions of quantity relate to units per kilogram of the finished feed compositions. Butylated hydroxy toluene 125.0 mg d1-Methionine 500.0 mg Vitamin A 3300.0 I.U. Vitamin D₃ 1100.0 I.C.U. Riboflavin 4.4 mg Vitamin E 2.2 I.U. Niacin 27.5 mg Panthothenic acid 8.8 mg Choline chloride 500.0 mg Folic acid 1.43 mg Menadione sodium bisulfate 1.1 mg Vitamin B₁₂ 11.0 mcg Ground yellow corn, fine to […]

**Q.** With `C/C=C\C=C\[C@@H]1O[C@](O)([C@H](CO[C@H]2C[C@@H](OC)[C@@H](O[C@@H]3C[C@@H](OC)[C@@H](O[C@H]4C[C@H](OC)[C@H](O)[C@H](C)O4)[C@H](C)O3)[C@@H](C)O2)C(=O)NC/C=C/C=C(\C)[C@@H](OC)[C@H](C)[C@H]2C[C@H](O)[C@H](/C=C/C=C/C=C/C(=O)O)O2)[C@H](OC(=O)Cc2ccccc2)[C@H](O)C1(C)C` [LL-E19020 alpha] as the molecule, how does the “Minimal Inhibitory Concentration” value (Staphylococcus aureus [1]; strain ATCC 25923) read?
**A.** The value was greater than 256 µg/mL.

**Q.** And the “Minimal Inhibitory Concentration” value (Staphylococcus aureus [1]; strain CMC-83-127)?
**A.** Its value is greater than 256 µg/mL.

**Q.** And the “Minimal Inhibitory Concentration” value (Staphylococcus aureus [1]; strain CMC-83-131)?
**A.** The value was greater than 256 µg/mL.

**Q.** And the “Minimal Inhibitory Concentration” value (Staphylococcus aureus [1]; strain CMC-83-132)?
**A.** Its value is greater than 256 µg/mL.

**Q.** And the “Minimal Inhibitory Concentration” value (Staphylococcus aureus [1]; strain SSC-82-57)?
**A.** The value was greater than 256 µg/mL.

**Q.** What about the “Minimal Inhibitory Concentration” value (Staphylococcus aureus [1]; strain Smith) of the same molecule?
**A.** Its value is 128 µg/mL.

**Q.** And the “Minimal Inhibitory Concentration” value (Staphylococcus aureus [1]; strain VGH-84-45)?
**A.** Its value is greater than 256 µg/mL.

**Q.** And the MIC (Streptococcus pyogenes)?
**A.** Its MIC is 2 µg/mL (≈ 1.63 µM).

**Q.** What about the “ZONE SIZE” value [2] of the same molecule?
**A.** The value was 13 mm.

**Q.** What about the “% Worms Removed” value ([3]; 10 m/kg single oral dose) of the same molecule?
**A.** The value was 23%.

**Q.** What about the “% Worms Removed” value ([3]; 250 ppm diet, fed day 7-11) of the same molecule?
**A.** The value was 56%.

**Q.** What about the “Wg Gains And Feed Efficiency % Improvement Over Controls COMBINED” value ([4]; 12.5 PPM in diet) of the same molecule?
**A.** Its value is 3.8%.

**Q.** And the “Wg Gains And Feed Efficiency % Improvement Over Controls FEMALES” value ([4]; 12.5 PPM in diet)?
**A.** The value was 7.8* %.

**Q.** And the “Wg Gains And Feed Efficiency % Improvement Over Controls MALES” value ([4]; 12.5 PPM in diet)?
**A.** Its value is 0%.

**Q.** And the “Wg Gains And Feed Efficiency % Improvement Over Controls FEED/GAIN” value ([4]; 12.5 PPM in diet)?
**A.** Its value is 1.36*.

**Q.** What about the “Wg Gains And Feed Efficiency % Improvement Over Controls COMBINED” value ([4]; 25 PPM in diet) of the same molecule?
**A.** Its value is 5.5%.

**Q.** What about the “Wg Gains And Feed Efficiency % Improvement Over Controls FEMALES” value ([4]; 25 PPM in diet) of the same molecule?
**A.** The value was 4.8%.

**Q.** What about the “Wg Gains And Feed Efficiency % Improvement Over Controls MALES” value ([4]; 25 PPM in diet) of the same molecule?
**A.** The value was 5.9%.

**Q.** And the “Wg Gains And Feed Efficiency % Improvement Over Controls FEED/GAIN” value ([4]; 25 PPM in diet)?
**A.** Its value is 1.34**.

**Q.** And the “Wg Gains And Feed Efficiency % Improvement Over Controls COMBINED” value ([4]; 50 PPM in diet)?
**A.** Its value is 6.6* %.

**Q.** And the “Wg Gains And Feed Efficiency % Improvement Over Controls FEMALES” value ([4]; 50 PPM in diet)?
**A.** The value was 10.5** %.

**Q.** And the “Wg Gains And Feed Efficiency % Improvement Over Controls MALES” value ([4]; 50 PPM in diet)?
**A.** Its value is 3.6%.

**Q.** And the “Wg Gains And Feed Efficiency % Improvement Over Controls FEED/GAIN” value ([4]; 50 PPM in diet)?
**A.** The value was 1.34**.

**Q.** What about the “Wg Gains And Feed Efficiency % Improvement Over Controls COMBINED” value ([4]; 100 PPM in diet) of the same molecule?
**A.** Its value is 2.9%.

**Q.** What about the “Wg Gains And Feed Efficiency % Improvement Over Controls FEMALES” value ([4]; 100 PPM in diet) of the same molecule?
**A.** The value was 3.2%.

**Q.** What about the “Wg Gains And Feed Efficiency % Improvement Over Controls MALES” value ([4]; 100 PPM in diet) of the same molecule?
**A.** Its value is 2.9%.

**Q.** And the “Wg Gains And Feed Efficiency % Improvement Over Controls FEED/GAIN” value ([4]; 100 PPM in diet)?
**A.** The value was 1.34**.

**Q.** What about the “Wg Gains And Feed Efficiency % Improvement Over Controls COMBINED” value ([4]; 200 PPM in diet) of the same molecule?
**A.** The value was 5.7%.

**Q.** And the “Wg Gains And Feed Efficiency % Improvement Over Controls FEMALES” value ([4]; 200 PPM in diet)?
**A.** The value was 7.1%.

**Q.** And the “Wg Gains And Feed Efficiency % Improvement Over Controls MALES” value ([4]; 200 PPM in diet)?
**A.** Its value is 4.5%.

**Q.** What about the “Wg Gains And Feed Efficiency % Improvement Over Controls FEED/GAIN” value ([4]; 200 PPM in diet) of the same molecule?
**A.** The value was 1.32**.

**Q.** What about the “Survival Ratios 7 Days After Infection” value ([5]; single subcutaneous dose 4 mg/kg) of the same molecule?
**A.** The value was 2/5.

**Q.** What about the “Survival Ratios 7 Days After Infection” value ([5]; single subcutaneous dose 8 mg/kg) of the same molecule?
**A.** The value was 4/5.

**Q.** What about the “Survival Ratios 7 Days After Infection” value ([5]; single subcutaneous dose 16 mg/kg) of the same molecule?
**A.** The value was 5/5.

**Q.** And the “Survival Ratios 7 Days After Infection” value ([5]; single subcutaneous dose 32 mg/kg)?
**A.** Its value is 5/5.

**Q.** What about the “Survival Ratios 7 Days After Infection” value ([5]; single subcutaneous dose 64 mg/kg) of the same molecule?
**A.** The value was 5/5.

**Q.** What about the MIC [6] of the same molecule?
**A.** Its MIC is greater than 256 µg/mL.

**Q.** What about the “Minimal Inhibitory Concentration” value ([7]; strain C203) of the same molecule?
**A.** Its value is 0.5 µg/mL.

**Q.** And the “Minimal Inhibitory Concentration” value ([7]; strain VGH-84-60)?
**A.** Its value is 0.25 µg/mL.

**Q.** And the “Minimal Inhibitory Concentration” value ([7]; strain VGH-84-61)?
**A.** Its value is 1 µg/mL.

**Q.** What about the “Minimal Inhibitory Concentration” value ([7]; strain VGH-84-62) of the same molecule?
**A.** The value was 1 µg/mL.

**Q.** What about the “Minimal Inhibitory Concentration” value ([7]; strain VGH-84-63) of the same molecule?
**A.** Its value is 0.12 µg/mL.

**Q.** What about the “Minimal Inhibitory Concentration” value ([7]; strain VGH-84-64) of the same molecule?
**A.** Its value is 0.12 µg/mL.

**Q.** And the “Minimal Inhibitory Concentration” value (Enterococcus; strain CMC-83-72)?
**A.** The value was greater than 256 µg/mL.

**Q.** What about the “Minimal Inhibitory Concentration” value (Enterococcus; strain IO-83-28) of the same molecule?
**A.** Its value is greater than 256 µg/mL.

**Q.** And the “Minimal Inhibitory Concentration” value (Enterococcus; strain IO-83-40)?
**A.** Its value is greater than 256 µg/mL.

**Q.** What about the “Minimal Inhibitory Concentration” value (Enterococcus; strain VGH-84-65) of the same molecule?
**A.** Its value is 256 µg/mL.

**Q.** And the “Minimal Inhibitory Concentration” value (Enterococcus; strain VGH-84-68)?
**A.** Its value is greater than 256 µg/mL.

**Q.** And the MIC (Treponema hyodysenteriae; strain B78 (ATCC 27164))?
**A.** Its MIC is 1 µg/mL (≈ 0.815 µM).

**Q.** What about the MIC (Treponema hyodysenteriae; strain B204 (ATCC 31212)) of the same molecule?
**A.** Its MIC is 1 µg/mL (≈ 0.815 µM).

**Q.** And the MIC (Staphylococcus aureus [8])?
**A.** The MIC was “≧ 256 µg/ml”.

**Q.** What about the “Weight Gains % Improvement over Controls 0-1 Wk” value ([9]; 50 ppm in the diet) of the same molecule?
**A.** The value was 12.5** %.

**Q.** And the “Weight Gains % Improvement over Controls 0-2 Wk” value ([9]; 50 ppm in the diet)?
**A.** The value was 4.1* %.

**Q.** And the “Weight Gains % Improvement over Controls 0-3 Wk” value ([9]; 50 ppm in the diet)?
**A.** Its value is 4.2* %.

**Q.** What about the “Feed/Gain 0-1 Wk” value ([9]; 50 ppm in the diet) of the same molecule?
**A.** The value was 1.11*.

**Q.** What about the “Feed/Gain 0-2 Wk” value ([9]; 50 ppm in the diet) of the same molecule?
**A.** Its value is 1.30.

**Q.** What about the “Feed/Gain 0-3 Wk” value ([9]; 50 ppm in the diet) of the same molecule?
**A.** Its value is 1.38.

**Q.** And the “Weight Gains % Improvement over Controls 0-1 Wk” value ([9]; 100 ppm in the diet)?
**A.** The value was 8.9* %.

**Q.** What about the “Weight Gains % Improvement over Controls 0-2 Wk” value ([9]; 100 ppm in the diet) of the same molecule?
**A.** The value was 6.3** %.

**Q.** And the “Weight Gains % Improvement over Controls 0-3 Wk” value ([9]; 100 ppm in the diet)?
**A.** The value was 6.1** %.

**Q.** What about the “Feed/Gain 0-1 Wk” value ([9]; 100 ppm in the diet) of the same molecule?
**A.** The value was 1.12*.

**Q.** And the “Feed/Gain 0-2 Wk” value ([9]; 100 ppm in the diet)?
**A.** The value was 1.27.

**Q.** And the “Feed/Gain 0-3 Wk” value ([9]; 100 ppm in the diet)?
**A.** Its value is 1.39.

**Q.** And the “efficiency of feed utilization (statement in words)” value ([9]; over unmedicated controls)?
**A.** Its value is “increased the efficiency of feed utilization”.

**Q.** And the “weight gains of chicks (statement in words)” value ([9]; over unmedicated controls)?
**A.** Its value is “improved the weight gains of chicks”.
